Where two headings read alike, the source gives them in different places.
Target: central M2 cholinergic receptors (Homo sapiens, UniProt P08172)
Conditions: mean of 11 subjects; for K1 (rate constant for transfer from plasma to the tissue) / VT (total distribution volume) / K2 (tissue clearance rate constant): 1TKA
Text: Synapse 49:150-156 (2003). […] Carson R E, Kiesewetter D O, Jagoda E, Der M G, Herscovitch P, Eckelman W C, Muscarinic cholinergic receptor measurements with [^18F]FP-TZTP: control and competition studies. […] J Nucl Med 40:30P (1999).
Step 1: To calculate group mean parameter values that can be used for computer simulation analysis, ROI TACs were fitted by one-tissue kinetic analysis “1TKA” using individual metabolite-corrected plasma input functions. The mean 1TKA parameter values from 11 subjects were then used to generate noise-free TAC data as described below in Step 3.
Step 2: ROI TAC percent noise was calculated based on deviations from 1TKA fitting (100×SD/mean) for the latter portion of the TAC (60 to 120 min) and the mean percent noise over these 11 subjects was calculated (Table 2).

Sequence of central M2 cholinergic receptors (P08172 whole entry): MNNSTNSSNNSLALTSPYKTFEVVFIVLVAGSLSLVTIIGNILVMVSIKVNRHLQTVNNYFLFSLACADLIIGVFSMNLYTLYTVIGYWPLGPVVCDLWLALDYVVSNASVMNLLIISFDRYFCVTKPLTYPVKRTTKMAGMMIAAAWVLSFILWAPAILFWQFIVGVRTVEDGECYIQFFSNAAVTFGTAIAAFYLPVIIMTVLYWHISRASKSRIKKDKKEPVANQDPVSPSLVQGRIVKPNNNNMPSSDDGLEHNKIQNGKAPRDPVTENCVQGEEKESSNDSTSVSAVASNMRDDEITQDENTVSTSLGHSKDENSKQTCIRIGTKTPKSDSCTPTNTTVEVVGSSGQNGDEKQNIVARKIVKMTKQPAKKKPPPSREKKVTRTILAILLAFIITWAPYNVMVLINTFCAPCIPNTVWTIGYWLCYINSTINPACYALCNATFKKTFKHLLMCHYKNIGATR

CN1CCC=C(c2nsnc2SCCC[18F])C1 [[^18F]FP-TZTP, 3-(3-(3-[18F]Fluropropyl)thio-1,2,5-thiadiazol-4-yl)-1,2,5,6 tetrahydro-1-methylpyridine]
K1 (rate constant for transfer from plasma to the tissue) (cerebellum (input region, K'1)): 0.466 mL/min/cm^3 | VT (total distribution volume) (cerebellum (input region, V'T)): 43 mL/cm^3 | K2 (tissue clearance rate constant) (cerebellum (input region, k'2)): 0.0110 min⁻¹ | k2/k′2 (thalamus k2 relative to cerebellum k′2): 1.60 | K1 (rate constant for transfer from plasma to the tissue) (thalamus): 0.506 mL/min/cm^3 | K2 (tissue clearance rate constant) (thalamus): 0.0176 min⁻¹ | VT (total distribution volume) (thalamus): 29 mL/cm^3

Source: patent US8652440B2, “Methods for diagnosing diseases and evaluating treatments therefor using PET” (The Trustees of Columbia University in the City of New York, priority 2007, dated 2014)
